Calls of active or inactive are those of the source. How the calls were made is not given here.
Test system: M. tuberculosis H37Rv growth inhibition with meropenem
Assay: dose response, H37Rv, with and without meropenem (AID 434987);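 further: growth over 7 days at 37 °C before Alamar Blue read on day 9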
[1] = M. tuberculosis H37Rv growth inhibition, measured here: IC50 without meropenem
[2] = M. tuberculosis H37Rv growth inhibition, measured here: IC90 without meropenem
[3] = measured here: IC90 with meropenem

Row | Structure (SMILES) | IC50 | IC50 [1] | IC90 [2] | IC90 [3]
1 | CCCCC(=O)Nc1ccc(NC(=S)NC(=O)CCCCl)cc1OC | > 50 µM (inactive) | 94.9 µM | > 100 µM | > 50 µM
2 | COC(=O)c1sc(-c2ccc(C(C)(C)C)cc2)cc1NC(=O)CCC(=O)O | 1.37 µM | 23.8 µM | > 100 µM | 28.7 µM
3 | COc1ccccc1C(c1c(N)n(C)c(=O)n(C)c1=O)C(C)[N+](=O)[O-] (stereo unspecified) | 11.2 µM (inactive) | 21.4 µM | 28.9 µM | 18 µM
4 | Cc1ccc(SCc2c(C#N)c3ccccc3n2C)cc1 | > 100 µM (inactive) | > 100 µM | > 100 µM | > 100 µM
5 | O=C1OC(c2ccco2)=N/C1=C\c1ccc(-c2cccc(C(F)(F)F)c2)o1 | 48.9 µM (inactive) | 75.3 µM | > 100 µM | 53.4 µM
6 | CCC(CC)c1nnc(NC(=O)c2cc(-c3ccccc3)nc3ccccc23)s1 | > 100 µM (inactive) | > 100 µM | > 100 µM | > 100 µM
7 | O=C(Cc1ccccc1Cl)Nc1nc2ccccc2[nH]1 | 9.31 µM | > 100 µM | > 100 µM | > 25 µM
8 | O=C(c1cccc(C(=O)N2CCN(c3ccc(F)cc3)CC2)c1)N1CCN(c2ccc(F)cc2)CC1 | 93.2 µM (inactive) | 95.2 µM | > 100 µM | > 100 µM
9 | CCOC(=O)Cn1c(=NC(=O)C2CC2)sc2c(C)cc(C)cc21 | 9.84 µM | > 100 µM | > 100 µM | > 100 µM
10 | O=C(CCN1c2ccccc2Sc2ccccc21)Oc1ccccc1 | 8.48 µM | > 100 µM | > 100 µM | > 100 µM
11 | COc1cc(OC)c(C(=O)Nc2cccc3ccccc23)cc1OC | > 100 µM (inactive) | > 100 µM | > 100 µM | > 100 µM
12 | COc1cc2c(cc1OC)C(c1ccccc1)CC2=O (stereo unspecified) | 43.3 µM (inactive) | 94 µM | > 100 µM | > 100 µM
13 | c1ccc2c(c1)Cn1nc(Cc3nc4c(s3)CCCC4)nc1-2 | 47.5 µM (inactive) | 79.1 µM | > 100 µM | 53 µM
14 | CSCC(=O)Nc1ccc(F)c(Cl)c1 | 10.1 µM (inactive) | 21.9 µM | > 100 µM | > 100 µM
15 | COc1ccccc1CNC(=O)COC(=O)C1=COCCO1 | 18.5 µM | 67.9 µM | > 100 µM | > 100 µM
16 | CCC(CC)c1nnc(NC(=O)c2ccc(N3CCCCC3)c([N+](=O)[O-])c2)s1 | 9.31 µM | 75.9 µM | > 100 µM | 44 µM
17 | CC(C)(C)Nc1nc(Nc2ccc([N+](=O)[O-])cc2)nc(NC(C)(C)C)n1 | > 100 µM (inactive) | > 100 µM | > 100 µM | > 100 µM
18 | O=C(CCN1C(=O)/C(=C/c2ccccc2F)SC1=S)Nc1ccccn1 | > 100 µM (inactive) | > 100 µM | > 100 µM | > 100 µM
19 | CCCn1nc2cc(C(=O)NCCCCc3ccccc3)ccc2c1OCC | 90.1 µM (inactive) | 92.3 µM | > 100 µM | > 100 µM
20 | O=C(Nc1nc2ccccc2n1CCN1CCCC1)C1CCCCC1 | 8.68 µM | 23.9 µM | 47.2 µM | 27.5 µM
21 | COc1cccc(NC(=S)Nc2cc(C)cc(C)n2)c1 | 6.41 µM | > 100 µM | > 100 µM | > 100 µM
22 | O=C(NC(=S)N1CCOCC1)c1ccc([N+](=O)[O-])cc1 | 20.7 µM (inactive) | 46.8 µM | > 100 µM | > 100 µM
23 | Cc1cc(N2CCCCCC2)nc(-c2ccccc2O)n1 | 67.2 µM (inactive) | 91.3 µM | > 100 µM | > 100 µM
24 | Cn1nnnc1SCC(=O)Nc1ccccc1[N+](=O)[O-] | 28.8 µM | 71.9 µM | > 100 µM | > 100 µM

Source: PubChem BioAssay AID434987 (Southern Research Specialized Biocontainment Screening …, 2010)
